Measurements reported in ChEMBL document CHEMBL6092150, “Exploration of isatin-based inhibitors of SARS-CoV-2 Nsp15 endoribonuclease” (Eur J Med Chem, 2024).

Legend:
SARS-CoV-2 [1] = assay: Antiviral activity against SARS-CoV-2 Omicron BA.7 variant infected in human A549 cells transfected with human ACE2 and TMPRSS2 assessed as fold reduction in viral RNA load at 80 uM incubated for 3 days by qRT-PCR analysis relative to control; type: functional, Severe acute respiratory syndrome coronavirus 2; conditions: time 3 day
SARS-CoV-2 [2] = assay: Antiviral activity against SARS-CoV-2 Omicron BA.7 variant infected in human A549 cells transfected with human ACE2 and TMPRSS2 assessed as fold reduction in viral RNA load incubated for 3 days by qRT-PCR analysis; type: functional; conditions: Severe acute respiratory syndrome coronavirus 2, Omicron BA.7, A549, 72 h; time 3 day
SARS-CoV-2 [3] = assay: Antiviral activity against SARS-CoV-2 Omicron BA.7 variant infected in human A549 cells transfected with human ACE2 and TMPRSS2 assessed as fold reduction in viral RNA load at 40 uM incubated for 3 days by qRT-PCR analysis relative to control; type: functional, Severe acute respiratory syndrome coronavirus 2; conditions: time 3 day

| Compound | fold change (FC) (SARS-CoV-2 [1]) | EC90 (SARS-CoV-2 [2]) [µM] | fold change (FC) (SARS-CoV-2 [3]) |
| --- | --- | --- | --- |
| N#CC(C#N)=C1C(=O)Nc2ccc([N+](=O)[O-])cc21 | 425 | 54 | – |
| N#CC(C#N)=C1C(=O)Nc2c(Br)cc(Br)cc21 | 68000 | 39 | – |
| N#C[C@@]1(c2ccc3c(N)ncnn23)O[C@H](CO)[C@@H](O)[C@H]1O [GS-441524] | – | 2 | 72000 |
